Data set [1] in a line: Cellular toxicity, lactate dehydrogenase (LDH) assay. It counts as cell-based. The procedure: (§1) Methods: Cellular toxicity was determined by Lactate dehydrogenase concentration and WST-1 cell proliferation assay as well as hemolysis assay.
Data set [2] in a line: Cellular toxicity, WST-1 cell proliferation assay. It counts as cell-based. The procedure:
as §1

The next data set concerns red blood cell. The data set is described as follows: Hemolysis assay. It is filed as cell-based. On the procedure: as §1
Data set [3] has as its system bacteria from the ESKAPE panel. It is filed as cell-based. The procedure:
Methods: Broth microdilution assay. Log-phase bacteria were collected by centrifugation (2500 rpm, 10 min, 4° C.), washed twice with 10 mM sodium phosphate buffer containing 1% (w/v) TSB and the optical density at 600 nm was adjusted to 0.1. Approximately 5×10^5 CFU/ml bacteria were incubated with serial peptide concentrations (1.17-150 μM) in a final volume of 100 μl in 10 mM sodium phosphate buffer containing 1% (w/v) TSB for 2 hours at 37° C. After incubation, 100 μl of 6% TSB (w/v) was added and absorbance was measured at 600 nm (Tecan, Switzerland) and monitored for 18 hours. Afterwards, 100 μl per well was plated on LB agar to determine the number of viable bacteria microbiologically. Bactericidal activity was expressed as the LC99.9, the lowest concentration that killed ≥99.9% of bacteria.

Data set [4] in a line: Acute tolerability after oral administration. It is filed as in vivo, C57BL/6N mice. An excerpt:
Methods: C57BL/6N mice were generated and maintained (including breeding and housing) at the animal facilities of the Helmholtz Centre for Infection Research (HZI) under enhanced specific pathogen-free (SPF) conditions (Stehr et al., 2009). Animals used in the experiments were gender and age matched. Female and male mice with an age of 8-12 weeks were used. Sterilized food and water ad libitum were provided. Mice were kept under a strict 12-hour light cycle (lights on at 7:00 am and off at […]) and housed in groups of two to six mice per cage. All mice were euthanized by asphyxiation with CO2 and cervical dislocation. All animal experiments were performed in agreement with the local government of Lower Saxony, Germany (approved permission No. 33.19-42502-04-18/2499).
Age- and gender-matched mice received two doses of peptides (0, 125 μg or 250 μg) solved in 100 μl PBS orally per day. Bodyweight and appearance were recorded. The following day, mice were sacrificed and stomach, kidney, spleen, liver, small intestine, cecum and colon were removed for histological scoring. Around 1 ml of blood was taken from the heart to measure inflammatory markers including creatinine in the kidney and the enzyme levels of glutamate-oxalacetate-transaminase (GOT) in the liver.

The test system of data set [5] is several pathogenic bacteria. The data set is described as follows: Radial diffusion assay and MIC screening for antimicrobial activity. The note with it: radial diffusion assay and MIC determinations. It is filed as cell-based. On the procedure: (§2) Methods: Log-phase bacteria were cultivated for up to 18 hours in TSB (TSB, Becton Dickinson, USA), washed and diluted to 4×10^6 CFU in 10 ml agar. Bacteria were incubated in 10 ml of 10 mM sodium phosphate, pH 7.4, containing 0.3 mg/ml of TSB powder and 1% (w/v) low EEO-agarose (AppliChem). Lipopeptides were pipetted into punched wells and diffused into the gel for 3 hours at 37° C. After that, a nutrient-rich gel with 6% TSB (w/v) and 1% agarose in 10 mM sodium phosphate buffer was poured on top of the first gel and incubated for up to 24 hours at 37° C. Then the diameter of inhibition zones was measured.
(§3) Clinical isolates of A. baumannii DSM30007, E. faecium DSM2918, K. pneumoniae DSM30104 and P. aeruginosa DSM1117 were provided by the Department for Laboratory Medicine at Robert-Bosch-Hospital Stuttgart, Germany. C. rodentium DSM16636 and E. coli DSM8695 were obtained from the Deutsche Sammlung von Mikroorganismen and Zellkultur GmbH Braunschweig, Germany. […]

The next data set deals with C. albicans. The data set is described as follows: Broth microdilution assay, antifungal activity. It counts as cell-based. On the procedure: (§4) Methods: Broth microdilution assay. Candida was cultured in TSB over night at 37° C., centrifuged (1500 rpm, 10 min, RT) and washed twice with 10 mM sodium phosphate buffer containing 1% (w/v) TSB. Candida cells were counted and approximately 5×10^5 CFU/ml fungi were incubated with serial peptide concentrations (1.17-150 μM) in a final volume of 100 μl in 10 mM sodium phosphate buffer containing 1% (w/v) TSB for 2 hours at 37° C. After incubation, 100 μl of 6% TSB (w/v) was added and absorbance was measured at 600 nm (Tecan, Switzerland) and monitored for 18 hours. Afterwards, 100 μl per well was plated on YPD agar to determine the number of viable bacteria microbiologically.

The next data set has as its system C. tropicalis. The data set is described as follows: Broth microdilution assay, antifungal activity. It is filed as cell-based. On the procedure:
as §4

The next data set has as its system ypuA promoter. The data set is described as follows: ypuA promoter luciferase reporter gene assay. It counts as cell-based, Bacillus subitilis 1S34. The procedure: A specific bacterial reporter strain with the genetic background of Bacillus subitilis 1S34, carrying the promoter of the ypuA gene, fused to the firefly luciferase reporter gene, was used to identify cell envelope-related damage caused by treatment with antimicrobial compounds. Bacteria were cultured to an OD600 of 0.9 in LB broth with 5 μg/ml erythromycin at 37° C. and diluted to an OD600 of 0.02. Serial peptide dilutions (0.15-150 μM) were prepared in a microtiter plate and incubated with the adjusted bacterial suspension at 37° C. for 1 hour. Subsequently, citrate buffer (0.1 M, pH 5) containing 2 mM luciferin (Iris Biotech, Germany) was added and luminescence was measured using a microplate reader (Tecan, Switzerland).

The next data set has as its system S. aureus NCTC8325. The data set can be described thus: Membrane potential assay with DiOC2(3). It is filed as cell-based. To be noted: 30 min treatment. The procedure: S. aureus NCTC8325 was grown to log-phase in LB+0.1% glucose, harvested and the optical density at 600 nm (OD600) was adjusted to 0.5. Bacteria were incubated with 30 μM 3,3′-diethyloxacarbocyanine iodide (DiOC2(3), Invitrogen™) for 15 min in the dark and treated with serial peptide concentrations for 30 min. The protonophore carbonyl cyanide m-chlorophenyl hydrazone (CCCP, Sigma Aldrich) was used as a positive control and DMSO or 0.01% acetic acid as negative control. Fluorescence was measured at an excitation wavelength of 485 nm and two emission wavelengths, 530 nm (green) and 630 (nm) red, using a microplate reader (Tecan, Switzerland).

For the next data set, the system named is S. Typhimurium. The data set can be described thus: Radial diffusion assay. It counts as cell-based. On the procedure: as §2, §3

≈ marks a conversion by molar mass, not a printed value. Entries after “also recorded” stand apart in the source; their conditions may differ. Starred links: 1 amine or outer side, 2 acyl side, 3 side chain; linkers in the order of their positions; H or OH if unused. Non-standard residues stand in square brackets, D forms with d. Residues, ends and D or L forms follow the SMILES beside them. No end group written: not given here. ξ: configuration not given here. *: point of attachment. K(Pam) = CCCCCCCCCCCCCCCC(=O)NCCCC[C@H](N[*:1])C(=O)[*:2]; X1 = CCCCCCCCCCCCCCCC(=O)OCC(C*)OC(=O)CCCCCCCCCCCCCCC; Palmitoyl = CCCCCCCCCCCCCCCC(=O)*; AEEA = NCCOCCOCC(=O)O; ξC = NC(CS)C(=O)O

On to `CCCCCCCCCCCCCCCC(=O)N[C@@H](CCCNC(=N)N)C(=O)NCC(=O)N[C@@H](CCCCN)C(=O)N[C@@H](C)C(=O)N[C@@H](CCCCN)C(=O)N[C@@H](CS)C(=O)N[C@@H](CS)C(=O)N[C@@H](CCCCN)C(=O)O` [Pam-2] (Palmitoyl-RGKAKCCK-OH), for which the “LDH activity (cytotoxicity)” value in data set [1] was “some LDH activity”. For the same molecule, in [2], the “metabolic activity (WST-1 assay)” value is reported as “modest decrease”. For the same molecule, the “red blood cell disruption (hemolysis)” value with red blood cell is given as “minimal red blood cell disruption”.
`CCCCCCCCCCCCCCCC(=O)NCCOCCOCC(=O)N[C@@H](CCCNC(=N)N)C(=O)NCC(=O)N[C@@H](CCCCN)C(=O)N[C@@H](C)C(=O)N[C@@H](CCCCN)C(=O)N[C@@H](CS)C(=O)N[C@@H](CS)C(=O)N[C@@H](CCCCN)C(=O)O` [Pam-3] ({Palmitoyl-AEEA}-RGKAKCCK-OH) had an MIC in data set [3] of 9.38 µM (≈ 12 µg/mL). Moreover, in [1], the “LDH activity (cytotoxicity)” value was “little LDH activity”. For the same molecule, in data set [2], the “metabolic activity (WST-1 assay)” value is listed as “slight decrease”. Moreover, the “red blood cell disruption (hemolysis)” value with red blood cell is reported as “modest red blood cell disruption”. Further, in data set [4] (mouse, in vivo, po), the “histological examination of gastrointestinal, liver and kidney tissues” value was “no alterations”; the “serum level of creatinine” value is “no significant differences between the groups”; the “serum level of glutamic oxaloacetic transaminase (GOT)” value is recorded as “no significant differences between the groups”. Also, in data set [4] (oral, mice, 24 hours after application, 125 or 250 μg doses), the “acute toxicity (histological analysis and serum markers)” value is “did not reveal any acute toxicity; also recorded: No danger signals”.
On to `CCCCCCCCCCCCCCCC(=O)NC(CSCC(COC(=O)CCCCCCCCCCCCCCC)OC(=O)CCCCCCCCCCCCCCC)C(=O)N[C@@H](CCCNC(=N)N)C(=O)NCC(=O)N[C@@H](CCCCN)C(=O)N[C@@H](C)C(=O)N[C@@H](CCCCN)C(=O)N[C@@H](CS)C(=O)N[C@@H](CS)C(=O)N[C@@H](CCCCN)C(=O)O` (stereo partly drawn) [Pam-4] (Palmitoyl-[ξC](X1)RGKAKCCK-OH), for which the “LDH activity (cytotoxicity)” value in data set [1] is “no LDH activity”. In addition, the “metabolic activity (WST-1 assay)” value in data set [2] is given as “normal metabolic activity”. The “red blood cell disruption (hemolysis)” value in the data set with red blood cell is “minimal red blood cell disruption”.
In the case of “Pam-Lys(Pam)-RGKAKCCK ({Palmitoyl-K(Pam)}-RGKAKCCK; cysteine pairing not given here) [Pam-5, octapeptide lipopeptide containing lysine as spacer]”, the “antimicrobial activity, inhibition of bacterial growth of the tested strains” value in data set [5] was “generally inactive”. Further, the bactericidal activity entry in [3] (broth microdilution, 1.17-150 μM peptide, 2 hours) is “moderate effects”. Besides, in the data set on C. albicans, the “antifungal activity against C. albicans” value is “modest activity; also recorded: some efficacy”. Besides, the “antifungal activity against C. tropicalis” value with C. tropicalis is on record as “good activity; also recorded: highly effective”. Moreover, the “cell envelope damage (ypuA reporter)” value with ypuA promoter is “little cell envelope damage”. Also, in the data set on S. aureus NCTC8325, the “breakdown of the membrane potential” value is on record as “most pronounced”. Further, the “LDH activity (cytotoxicity)” value in data set [1] is on record as “no LDH activity”. Further, in [2], the “metabolic activity (WST-1 assay)” value is on record as “normal metabolic activity”. In addition, the “red blood cell disruption (hemolysis)” value with red blood cell was “minimal red blood cell disruption”.
Consider “RGKAKCCK (Cleavage product of defensin) [octapeptide, the C-terminal eight amino acids of human beta-defensin 1, non-modified]”, for which the “inhibition of S. Typhimurium growth” value in the data set on S. Typhimurium is “failed to inhibit”.
